SMILES strings stand for the structures. Active and inactive are the calls of the source.

Common to all, as to assay type: functional
For one assay, the target named is T1, Protein skinhead-1 (Caenorhabditis elegans, UniProt P34707).
T1 sequence (P34707 whole entry): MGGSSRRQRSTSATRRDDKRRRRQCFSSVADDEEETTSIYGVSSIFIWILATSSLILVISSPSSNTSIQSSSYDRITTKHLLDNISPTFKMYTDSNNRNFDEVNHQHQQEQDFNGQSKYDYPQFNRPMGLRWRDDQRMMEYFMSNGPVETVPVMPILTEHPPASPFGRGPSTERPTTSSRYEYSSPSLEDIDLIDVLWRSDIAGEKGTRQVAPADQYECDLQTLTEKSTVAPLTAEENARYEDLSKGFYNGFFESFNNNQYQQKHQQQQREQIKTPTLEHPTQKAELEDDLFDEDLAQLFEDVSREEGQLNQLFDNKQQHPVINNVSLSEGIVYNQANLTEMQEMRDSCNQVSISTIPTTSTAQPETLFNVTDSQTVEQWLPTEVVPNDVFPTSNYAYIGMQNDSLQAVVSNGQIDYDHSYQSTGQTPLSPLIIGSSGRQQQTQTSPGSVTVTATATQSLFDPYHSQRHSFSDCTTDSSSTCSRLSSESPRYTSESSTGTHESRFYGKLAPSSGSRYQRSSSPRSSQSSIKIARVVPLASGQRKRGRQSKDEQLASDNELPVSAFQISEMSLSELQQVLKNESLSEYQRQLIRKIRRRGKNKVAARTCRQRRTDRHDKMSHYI

The target of assay [1] is T2, Endoribonuclease toxin MazF (Escherichia coli K-12, UniProt P0AE70).
T2 sequence (P0AE70 whole entry): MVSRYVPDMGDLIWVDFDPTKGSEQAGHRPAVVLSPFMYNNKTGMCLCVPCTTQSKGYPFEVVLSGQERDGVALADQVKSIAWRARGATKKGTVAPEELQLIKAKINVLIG
Nature of the assay: substrate-only fluorescence increase artefacts – biochemical, single-stranded RNase substrate, counter-screen for MazEF activator project, dose response (AID 588502). (Counterscreens check selectivity or assay interference.)

The target of assay [2] is T2, Endoribonuclease toxin MazF. Nature of the assay: activation of MazEF endoribonuclease cleavage – biochemical, fluorescence, single-stranded RNA substrate, uHTS hits, dose response (AID 588481).
The target in assay [3] is T3, High affinity choline transporter 1 (Homo sapiens, UniProt Q9GZV3).
T3 sequence (Q9GZV3 whole entry): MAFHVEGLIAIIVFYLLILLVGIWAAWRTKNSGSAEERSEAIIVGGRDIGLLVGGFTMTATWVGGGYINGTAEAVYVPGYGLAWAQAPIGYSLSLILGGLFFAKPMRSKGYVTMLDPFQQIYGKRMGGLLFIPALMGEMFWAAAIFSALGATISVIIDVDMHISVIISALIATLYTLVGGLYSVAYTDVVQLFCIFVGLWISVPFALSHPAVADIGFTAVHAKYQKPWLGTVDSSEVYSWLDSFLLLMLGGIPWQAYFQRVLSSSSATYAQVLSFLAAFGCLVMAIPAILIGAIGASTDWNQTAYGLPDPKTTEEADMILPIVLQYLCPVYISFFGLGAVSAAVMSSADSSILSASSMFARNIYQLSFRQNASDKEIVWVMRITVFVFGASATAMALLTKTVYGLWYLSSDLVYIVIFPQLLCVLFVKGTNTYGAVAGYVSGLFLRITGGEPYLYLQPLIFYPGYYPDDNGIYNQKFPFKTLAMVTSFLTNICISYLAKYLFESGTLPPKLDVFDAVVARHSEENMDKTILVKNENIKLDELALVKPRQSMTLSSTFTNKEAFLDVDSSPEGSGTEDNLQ
Nature of the assay: human choline transporter blockers, potency – cell-based, 5-point CRC, membrane potential dye, dose response (AID 504840).

For assay [4], the target named is T3, High affinity choline transporter 1. Nature of the assay: human choline transporter blockers, potency – cell-based, 10-point CRC, membrane potential dye, dose response (AID 588401).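 Note: membrane potential dye fluorescence of choline-evoked depolarization via CHT.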
The next assay deals with Prothrombin (Bos taurus, UniProt P00735). Nature of the assay: thrombin protease inhibitors – biochemical, fluorescence polarization, uHTS hits, dose response (AID 602369). (Polarisation of emitted light reports the rotation of a fluorescent probe.)
Assay [5] addresses 72 kDa type IV collagenase (Homo sapiens, UniProt P08253). Nature of the assay: Dose Response validation of uHTS RPN11 inhibitor hits using a MMP-2 Fluorescence assay.
The target in assay [6] is 26S proteasome non-ATPase regulatory subunit 14 (Homo sapiens, UniProt O00487). Nature of the assay: inhibition of proteasome subunit RPN11 – biochemical, fluorescence polarization, uHTS hits, confirmation (AID 602368).
Chain of 26S proteasome non-ATPase regulatory subunit 14 (O00487 whole entry): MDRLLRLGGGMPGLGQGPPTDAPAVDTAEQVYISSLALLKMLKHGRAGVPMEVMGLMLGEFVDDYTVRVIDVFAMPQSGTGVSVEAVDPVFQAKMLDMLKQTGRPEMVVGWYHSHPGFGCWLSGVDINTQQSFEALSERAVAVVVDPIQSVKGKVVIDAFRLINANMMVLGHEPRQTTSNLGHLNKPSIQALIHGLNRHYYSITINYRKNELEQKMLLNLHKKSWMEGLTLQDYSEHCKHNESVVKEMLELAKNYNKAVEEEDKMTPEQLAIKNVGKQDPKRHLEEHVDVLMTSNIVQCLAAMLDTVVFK
Assay [7] addresses Protein disulfide-isomerase (Homo sapiens, UniProt P07237). Nature of the assay: inhibition of PDI-driven insulin aggregation – biochemical, turbidity, absorbance, cherry-picked samples, dose response (AID 602350).
The target of a further assay is T4, Caspase-3 (Homo sapiens, UniProt P42574).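 Note: Dose-response selectivity test against caspase-3 for candidate inhibitors of sentrin-specific proteases (SENPs).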
T4 sequence (P42574 whole entry): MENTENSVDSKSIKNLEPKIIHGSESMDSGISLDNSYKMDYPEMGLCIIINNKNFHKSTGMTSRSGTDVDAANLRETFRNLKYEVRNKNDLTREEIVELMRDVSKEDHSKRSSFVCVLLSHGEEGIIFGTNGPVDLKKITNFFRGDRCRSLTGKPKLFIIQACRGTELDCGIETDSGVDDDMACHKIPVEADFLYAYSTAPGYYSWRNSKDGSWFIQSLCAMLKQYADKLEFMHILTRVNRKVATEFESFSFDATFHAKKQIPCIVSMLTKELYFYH

The target in assay [8] is T5, Sentrin-specific protease 8 (Homo sapiens, UniProt Q96LD8).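 Note: luminescence read-out of SENP8 inhibition, dose-response confirmation following an ultra-high-throughput screen.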
T5 sequence (Q96LD8 whole entry): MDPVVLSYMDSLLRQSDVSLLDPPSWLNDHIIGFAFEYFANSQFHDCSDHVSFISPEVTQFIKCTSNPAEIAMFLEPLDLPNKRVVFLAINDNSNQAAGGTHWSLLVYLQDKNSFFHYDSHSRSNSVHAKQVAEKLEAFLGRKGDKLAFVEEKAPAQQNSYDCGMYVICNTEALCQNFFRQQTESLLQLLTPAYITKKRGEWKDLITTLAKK

Assay [9] deals with T6, Sentrin-specific protease 7 (Homo sapiens, UniProt Q9BQF6).
T6 sequence (Q9BQF6 whole entry): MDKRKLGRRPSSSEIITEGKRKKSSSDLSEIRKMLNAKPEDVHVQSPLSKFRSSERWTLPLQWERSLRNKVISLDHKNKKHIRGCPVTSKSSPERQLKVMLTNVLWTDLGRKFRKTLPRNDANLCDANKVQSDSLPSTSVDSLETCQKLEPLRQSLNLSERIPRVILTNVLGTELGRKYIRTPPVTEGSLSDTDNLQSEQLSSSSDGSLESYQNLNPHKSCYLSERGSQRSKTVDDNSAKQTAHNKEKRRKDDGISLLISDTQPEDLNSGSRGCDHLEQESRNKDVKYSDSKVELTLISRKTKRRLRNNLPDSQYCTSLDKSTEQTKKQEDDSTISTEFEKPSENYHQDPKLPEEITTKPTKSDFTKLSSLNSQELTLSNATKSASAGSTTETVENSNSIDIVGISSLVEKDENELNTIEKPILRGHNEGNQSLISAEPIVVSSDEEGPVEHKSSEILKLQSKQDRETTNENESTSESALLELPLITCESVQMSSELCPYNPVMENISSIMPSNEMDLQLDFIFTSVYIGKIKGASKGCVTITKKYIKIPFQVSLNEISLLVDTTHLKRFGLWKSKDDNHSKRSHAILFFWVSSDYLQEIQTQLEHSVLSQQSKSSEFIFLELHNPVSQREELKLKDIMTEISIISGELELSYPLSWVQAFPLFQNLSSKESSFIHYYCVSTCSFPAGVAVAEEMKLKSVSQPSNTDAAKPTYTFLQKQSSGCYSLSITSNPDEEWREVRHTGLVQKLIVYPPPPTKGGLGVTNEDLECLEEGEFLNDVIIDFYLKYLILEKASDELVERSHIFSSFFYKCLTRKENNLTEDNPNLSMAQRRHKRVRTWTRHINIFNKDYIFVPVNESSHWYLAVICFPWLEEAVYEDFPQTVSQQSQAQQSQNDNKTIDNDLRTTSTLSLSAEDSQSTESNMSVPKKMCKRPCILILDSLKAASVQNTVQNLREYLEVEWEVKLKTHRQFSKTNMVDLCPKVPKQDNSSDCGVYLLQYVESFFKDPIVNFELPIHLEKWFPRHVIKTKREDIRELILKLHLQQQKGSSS

In assay [10] the target is T7, Sentrin-specific protease 6 (Homo sapiens, UniProt Q9GZR1).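 Note: Luminescence-based dose-response confirmatory assay of SENP6 inhibition, following up an ultra-high-throughput screen.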
T7 sequence (Q9GZR1 whole entry): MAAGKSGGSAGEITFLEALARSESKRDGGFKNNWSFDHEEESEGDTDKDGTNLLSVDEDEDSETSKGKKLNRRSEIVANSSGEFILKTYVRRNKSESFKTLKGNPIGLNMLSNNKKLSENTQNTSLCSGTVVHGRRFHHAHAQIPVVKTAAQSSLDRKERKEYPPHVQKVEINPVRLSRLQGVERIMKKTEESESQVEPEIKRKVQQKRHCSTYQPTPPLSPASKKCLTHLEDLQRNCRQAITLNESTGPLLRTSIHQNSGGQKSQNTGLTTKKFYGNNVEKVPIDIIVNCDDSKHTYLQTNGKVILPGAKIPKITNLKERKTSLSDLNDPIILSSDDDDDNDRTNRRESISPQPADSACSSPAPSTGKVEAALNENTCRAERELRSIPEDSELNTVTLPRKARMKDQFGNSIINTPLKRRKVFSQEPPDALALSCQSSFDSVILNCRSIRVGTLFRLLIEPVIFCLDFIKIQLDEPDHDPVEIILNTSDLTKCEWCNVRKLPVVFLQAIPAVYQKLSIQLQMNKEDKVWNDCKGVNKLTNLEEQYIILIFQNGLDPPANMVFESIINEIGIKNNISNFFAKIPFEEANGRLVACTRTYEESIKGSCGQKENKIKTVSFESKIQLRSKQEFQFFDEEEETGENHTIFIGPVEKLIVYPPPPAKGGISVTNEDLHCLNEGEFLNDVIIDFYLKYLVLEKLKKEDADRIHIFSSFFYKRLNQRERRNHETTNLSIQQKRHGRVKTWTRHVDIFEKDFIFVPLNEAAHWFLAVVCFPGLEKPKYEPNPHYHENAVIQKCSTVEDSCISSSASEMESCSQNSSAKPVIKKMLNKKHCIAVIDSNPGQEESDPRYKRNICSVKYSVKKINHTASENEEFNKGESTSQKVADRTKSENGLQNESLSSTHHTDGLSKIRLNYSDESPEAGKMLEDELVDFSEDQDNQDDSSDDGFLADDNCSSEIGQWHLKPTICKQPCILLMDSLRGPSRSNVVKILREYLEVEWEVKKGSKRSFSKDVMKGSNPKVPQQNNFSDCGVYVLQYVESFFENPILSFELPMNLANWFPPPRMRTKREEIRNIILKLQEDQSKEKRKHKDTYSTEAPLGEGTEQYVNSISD

Chain of 72 kDa type IV collagenase (P08253 whole entry): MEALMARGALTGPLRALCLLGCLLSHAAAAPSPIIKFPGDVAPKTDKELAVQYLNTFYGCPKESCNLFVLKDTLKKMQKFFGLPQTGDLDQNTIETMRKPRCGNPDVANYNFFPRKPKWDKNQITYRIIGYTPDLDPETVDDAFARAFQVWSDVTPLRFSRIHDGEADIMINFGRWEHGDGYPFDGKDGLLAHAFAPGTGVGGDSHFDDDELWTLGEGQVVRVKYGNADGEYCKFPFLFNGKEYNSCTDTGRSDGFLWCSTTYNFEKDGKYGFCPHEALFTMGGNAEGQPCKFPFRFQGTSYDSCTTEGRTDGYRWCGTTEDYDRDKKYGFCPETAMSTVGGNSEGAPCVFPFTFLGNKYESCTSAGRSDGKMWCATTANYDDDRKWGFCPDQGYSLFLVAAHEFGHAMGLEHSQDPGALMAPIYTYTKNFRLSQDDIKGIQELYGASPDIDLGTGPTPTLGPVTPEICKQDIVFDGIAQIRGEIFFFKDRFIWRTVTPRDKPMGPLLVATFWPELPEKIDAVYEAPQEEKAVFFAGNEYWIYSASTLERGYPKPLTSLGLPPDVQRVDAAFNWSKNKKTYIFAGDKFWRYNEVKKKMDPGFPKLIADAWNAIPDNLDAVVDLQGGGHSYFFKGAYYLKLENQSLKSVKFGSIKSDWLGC
Chain of Protein disulfide-isomerase (P07237 whole entry): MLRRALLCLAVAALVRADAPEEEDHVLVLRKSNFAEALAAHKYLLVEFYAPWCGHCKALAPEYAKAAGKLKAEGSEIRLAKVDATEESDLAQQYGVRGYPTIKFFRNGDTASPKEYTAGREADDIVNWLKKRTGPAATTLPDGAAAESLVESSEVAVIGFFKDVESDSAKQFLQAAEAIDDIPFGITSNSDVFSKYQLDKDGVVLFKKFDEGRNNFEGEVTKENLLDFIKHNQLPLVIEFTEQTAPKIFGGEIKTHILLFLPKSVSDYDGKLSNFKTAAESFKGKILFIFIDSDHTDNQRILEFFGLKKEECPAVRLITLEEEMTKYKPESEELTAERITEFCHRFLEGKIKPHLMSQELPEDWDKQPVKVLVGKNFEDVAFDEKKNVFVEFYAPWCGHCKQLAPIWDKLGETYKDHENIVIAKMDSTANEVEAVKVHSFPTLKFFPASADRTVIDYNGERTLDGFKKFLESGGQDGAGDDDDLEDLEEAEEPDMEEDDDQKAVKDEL

For `COC(=O)CSc1nc2cc(C)cc(C)c2cc1C#N`, on Protein skinhead-1, the IC50 was > 100 µM (inactive). Also, the EC50 in [1] and in [2] was > 99 µM (inactive) throughout.
As to `COc1ccc(C2=NN(c3ccc(C(=O)O)cc3)C(c3ccc(OC)c(OC)c3)C2)cc1` (stereo not given), the concentration for half-maximal inhibition (IC50) in [3] was 4.79 µM (active); in assay [4] it was 3.55 µM (active).
With `O=C(OCCCOc1ccc(F)cc1)c1ccc(O)cc1O`, the IC50 is 3.59 µM (active) in [3] and 4.47 µM (active) in assay [4].
As for `O=C(Nc1nc(-c2ccc(F)c(F)c2)cs1)Nc1ccc(F)cc1F`, the IC50 is 78.3 µM (active) at Prothrombin, > 100 µM (inactive) in [5] and 30.3 µM (active) in assay [6].
On to `N=C1CCCN1CC(=O)c1ccc(Cl)cc1`, for which the IC50 in assay [3] is 6.01 µM (active); in [4], 2.7 µM (active).
With `COc1cccc(/C=C(/CC(=O)Nc2ccc(N3CCOCC3)cc2)c2nc3ccccc3s2)c1`, the IC50 at Prothrombin is 25 µM (active); in [5], > 100 µM (inactive); in assay [6] it was 12.6 µM (active).
Take `CC(=O)OC[C@H]1O[C@@H](Oc2cc(O)cc3oc(-c4ccc(O)cc4)cc(=O)c23)[C@H](O[C@@H]2O[C@@H](C)[C@H](O)[C@@H](O)[C@H]2O)[C@@H](O)[C@@H]1O`: in assay [7], the AC50 is 19.5 µM (active).
As for `Cc1ccc2oc(-c3ccccc3)nc2c1`, the 50% inhibitory concentration (IC50) at Caspase-3 was 5.39 µM (active); in assay [8] it was 39.3 µM (active); in assay [9], 5.32 µM (active); in assay [10], 7.6 µM (active).

Usually IC50 stands for the point on the concentration scale where inhibition reaches its midpoint. As usually defined, the EC50 is the concentration needed to bring the measured effect to its halfway point. Broadly, the AC50 is the concentration giving half of the maximal activity seen.

These data come from ChEMBL document CHEMBL1201862, “PubChem BioAssay data set” (2004).
